Here are results for one molecule from PMC2847825 (Biological chemistry, 2009).

The structures appear in SMILES notation.

In this assay the target is T1, phenylalanine hydroxylase (Rattus norvegicus, UniProt P04176).
T1 sequence (P04176 2-453): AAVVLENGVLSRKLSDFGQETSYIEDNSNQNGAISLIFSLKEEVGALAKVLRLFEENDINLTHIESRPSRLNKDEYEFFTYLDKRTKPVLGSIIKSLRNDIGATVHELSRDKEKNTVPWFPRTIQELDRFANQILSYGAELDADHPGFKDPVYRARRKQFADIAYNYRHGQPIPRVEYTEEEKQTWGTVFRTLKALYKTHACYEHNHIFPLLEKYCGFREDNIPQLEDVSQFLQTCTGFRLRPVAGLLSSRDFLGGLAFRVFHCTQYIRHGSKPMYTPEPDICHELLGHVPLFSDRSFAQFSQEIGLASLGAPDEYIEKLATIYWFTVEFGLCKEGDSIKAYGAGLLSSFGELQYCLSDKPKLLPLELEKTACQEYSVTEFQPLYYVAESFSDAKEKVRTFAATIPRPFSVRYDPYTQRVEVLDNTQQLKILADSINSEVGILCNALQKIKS
In words: recombinant enzyme activity, HPLC detection of tyrosine. The assay is classed as biochemical.

For `c1cnc2c(c1)ccc1cccnc12` [1,10-phenanthroline], the “recombinant enzyme activity, HPLC detection of tyrosine” value was 0.01 mM.
